# Non-standard residues stand in square brackets, D forms with d.
# Test system: αvβ6 integrin
# Assay: Integrin inhibition assay (ELISA): inhibition of αvβ6 integrin binding to LAP (TGF-β1)
# Parameters: species or system human
# Conditions: 1 µM peptide preincubated 1 h at room temperature with 10 nM integrin αvβ6, 1.0 mM Mn2+, plate coated with 10 nM LAP (TGF-β1), absorbance at 490 nm, mean ± standard error, N = 3, numbers only in Figure 8, text gives comparisons in words
# From the text: Among the RGD-binding integrins, we selected αvβ6 integrin for measurement of the inhibition activity of the cyclic peptides. The αvβ6 integrin is reported to recognize the sequence beyond the RGD motif, RGDLXXL ([Dong et al., 2014]). Therefore, the inhibition activity of the cyclic peptides is expected to vary depending on the configuration and the modification at the CPC moiety. In addition, the inhibitor of the αvβ6 integrin is still under development ([John et al., 2020]), while an efficient inhibitor, cilengitide, exists for the αvβ3 and αvβ5 integrins ([Stupp and Ruegg, 2007]). […] The inhibitory activity of the commonly used RGD tripeptide was also measured as a control. […]
# The integrin inhibition assay was performed as follows. […] The bound αvβ6 integrin was detected by the biotinylated anti-Velcro polyclonal antibody and horseradish peroxidase-conjugated streptavidin. […] The bound antibody was detected by horseradish peroxidase-conjugated streptavidin (0.53 μg/mL), followed by colorimetrically measuring the amount of bound αvβ6 integrin using o-phenylenediamine (0.4 mg/mL; FUJIFILM Wako) and H2O2 (0.006%) in a 25 mM citric acid/50 mM Na2HPO4 buffer. The colorimetric reaction was stopped with 100 μL of 2.5 M H2SO4, and the absorbance of the chromogenic substrate was measured at 490 nm using a microplate reader (Molecular Devices EMax). […]
row,Inhibitory activity for binding of the αvβ6 integrin with LAP (TGF-β1),Substance
1,stronger than 3c and 3d,cyclo([dC]RGDC[dP]) (cysteine pairing not given here) [3b]
2,stronger than 3c and 3d,cyclo(CRGDC[dP]) (cysteine pairing not given here) [3a]
